The source made the active and inactive calls.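 Rule for the calls: active = compounds raising the signal whose fitted half-maximal concentration is at or below their top tested dose (cut at about 25 µM in these data); inconclusive = flat fit at 30 to 70% activity, or a poor fit; inactive = the rest.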
test system: INS-1E rat beta cells, no cytokines, CellTiter-Glo ATP, 48 h; assay: cytokine-free beta-cell viability effect – INS-1E rat cells, ATP luminescence, cherry pick, counter-screen for beta-cell apoptosis protection project, dose response (AID 463229)

Question: For `CCCCCN=Cc1c(C)[nH]n(-c2nc3ccccc3s2)c1=O`, which AC50 is on record?
Answer: 3.2 µM

Question: `Oc1c(C(c2ccccc2Cl)N2CCCC2)ccc2cccnc12` (stereo not drawn) was tested. Which AC50 did it give?
Answer: 7.11 µM

Question: How did the AC50 turn out when `Cc1cc(N/N=C/c2cccc(Cl)c2)nc(-n2nc(C)cc2C)n1` was run?
Answer: 16.4 µM

Question: `CC1=CC(=O)C(C(C)C)=C/C1=N/OS(=O)(=O)c1ccccc1` was tested. Which AC50 did it give?
Answer: 1.42 µM

Question: Which AC50 does the source give for `COc1ccc(C(C(=O)NC2CCCCC2)N(C(=O)CCl)c2cccc(Cl)c2)cc1` (stereo not drawn) here?
Answer: 7.03 µM

Question: Which AC50 does the source give for `CCN(CC)S(=O)(=O)c1ccc(Oc2ccc(S(=O)(=O)N(CC)CC)cc2)cc1` here?
Answer: 2.88 µM

Question: How did the AC50 turn out when `CCCCCCCNC1=CC(=O)CC(c2ccccc2)C1` (stereo not drawn) was run?
Answer: 9.84 µM

Question: `O=C(Nc1ccc(Cl)cc1)Nc1nnc(-c2ccncc2)s1` was tested. Which AC50 did it give?
Answer: 4.78 µM

Question: How did the AC50 turn out when `Cc1ccccc1C(=O)N1CCN(c2ccc(NC(=O)c3cccnc3)cc2)CC1` was run?
Answer: 11.7 µM

Question: How did the AC50 turn out when `CCOC(=O)c1ccc(NC(=O)c2cccnc2)cc1` was run?
Answer: 6.64 µM

Question: With `COc1ccc(CN(C)c2ccc(S(=O)(=O)N3CCN(C)CC3)cc2[N+](=O)[O-])cc1OC` as the molecule, how does the AC50 read?
Answer: 2.83 µM

Question: `O=[N+]([O-])/C=C/c1ccc2c(ccn2Cc2ccccc2)c1` was tested. Which AC50 did it give?
Answer: 7.72 µM

Question: Which AC50 does the source give for `COC(=O)c1sc(-c2ccc(C(C)(C)C)cc2)cc1NC(=O)/C=C/C(=O)O` here?
Answer: 13.8 µM

Question: With `Cc1ccc(NS(=O)(=O)c2cc([N+](=O)[O-])ccc2NNC(=S)Nc2cc(C)ccc2C)c(C)c1` as the molecule, how does the AC50 read?
Answer: 4.65 µM

Question: With `FC(F)(F)c1cccc(-c2nc3nc(Cl)c(Cl)nc3[nH]2)c1` as the molecule, how does the AC50 read?
Answer: 3.13 µM

Question: With `Cc1cc(C)nc(SCc2ccc(C(=O)N/N=C/c3cccc(O)c3O)cc2)n1` as the molecule, how does the AC50 read?
Answer: 8.06 µM

Question: How did the AC50 turn out when `CCC(/C=C1\Sc2ccc(OC)cc2N1CC)=C\c1sc2ccc(OC)cc2[n+]1CCCS(=O)(=O)[O-]` was run?
Answer: 5.74 µM

Question: Which AC50 does the source give for `Cc1cc2nc(-c3ccc(NC(=O)c4cccnc4)cc3)oc2cc1C` here?
Answer: 9.26 µM

Question: How did the AC50 turn out when `O=C(c1ccc2c(c1)[nH]c(=S)n1c3ccccc3nc21)N1CCN(c2cccc(Cl)c2)CC1` was run?
Answer: 14.5 µM

Question: How did the AC50 turn out when `Cn1nccc1C(=O)NC1CCCc2c1cnn2-c1ccc(C(C)(C)C)cc1` (stereo not drawn) was run?
Answer: 2.11 µM

Question: `O=C(N/N=C/c1cccc(F)c1)c1c(O)c2ccccc2[nH]c1=O` was tested. Which AC50 did it give?
Answer: 4.35 µM

Question: With `CCN(C1CCCCC1)S(=O)(=O)c1ccc(S(=O)(=O)NCc2ccncc2)cc1` as the molecule, how does the AC50 read?
Answer: 6.3 µM

Question: `N/C(=N\OC(=O)c1cccc(Cn2cc(C(F)(F)F)ccc2=O)c1)c1ccc(Cl)cc1` was tested. Which AC50 did it give?
Answer: 8.25 µM

Question: How did the AC50 turn out when `O=C(NNc1ccccc1Br)C(O)(c1cccc(C(F)(F)F)c1)c1cccc(C(F)(F)F)c1` was run?
Answer: 7.06 µM

Question: `Cc1ccc(NS(=O)(=O)c2ccc(NC(=O)CN(c3cc([N+](=O)[O-])ccc3C)S(C)(=O)=O)cc2)c(C)c1` was tested. Which AC50 did it give?
Answer: 1.86 µM

Question: Which AC50 does the source give for `Cc1ccc(NC(=O)c2c(C(F)(F)F)nn(C)c2SCc2cccc(C(F)(F)F)c2)cc1C` here?
Answer: 11.8 µM

Question: `Clc1ccc(-c2cc(-c3nnc4n3CCCCC4)c3ccccc3n2)cc1` was tested. Which AC50 did it give?
Answer: 4.91 µM

Question: With `Cc1ccc(-n2c(-c3ccc(Br)cc3)c[n+]3c2CCc2ccc4cccnc4c2-3)cc1` as the molecule, how does the AC50 read?
Answer: 0.482 µM

Question: For `Cc1onc(-c2c(Cl)cccc2Cl)c1C(=O)N/N=C(\N)COc1ccc(Cl)cc1`, which AC50 is on record?
Answer: 14.5 µM

Question: With `Fc1ccc(-c2cc(-c3nnc4n3CCCCC4)c3ccccc3n2)cc1` as the molecule, how does the AC50 read?
Answer: 8.53 µM

Question: With `Cc1ccc2c(c1)[nH]c1c(N3CCN(Cc4ccccc4)CC3)ncnc12` as the molecule, how does the AC50 read?
Answer: 8.07 µM

Question: `O=C1C(=O)c2c(C(=O)c3ccccc3)coc2-c2ccccc21` was tested. Which AC50 did it give?
Answer: 7.21 µM

Question: How did the AC50 turn out when `CC(=O)NC(c1ccc(C(C)C)cc1)c1ccc2cccnc2c1O` (stereo not drawn) was run?
Answer: 1.98 µM

Question: For `C=CCC1(CC=C)CCCN1C(=O)c1cc(COc2ccc(C)nc2)on1`, which AC50 is on record?
Answer: 2.54 µM

Question: For `O=C(c1ccc([N+](=O)[O-])s1)N1CCN(c2cccc(Cl)c2)CC1`, which AC50 is on record?
Answer: 19.3 µM

Question: Which AC50 does the source give for `CCC(CO)Oc1cc(NCc2ccc(C)c(C)c2)c2ncn(C(C)C)c2c1` (stereo not drawn) here?
Answer: 4.91 µM

Question: How did the AC50 turn out when `S=C(NCc1ccc(Cl)cc1)NC12CC3CC(CC(C3)C1)C2` was run?
Answer: 13.9 µM

Question: How did the AC50 turn out when `COc1ccc(C(=O)Nc2ccccc2C(=O)N/N=C/c2ccccn2)cc1OC` was run?
Answer: 8.14 µM

Question: With `CCCC12C(=O)C(C)(C(c3ccccc3)=C1c1ccccc1)C1C(=O)N(c3ccc(C)cc3)C(=O)C12` (stereo not drawn) as the molecule, how does the AC50 read?
Answer: 4.4 µM

Question: With `CCCOc1cc(NCc2ccccc2)c2ncn(C(C)C)c2c1` as the molecule, how does the AC50 read?
Answer: 7.28 µM

Question: `COCCNC(=O)CSC1=N/C(=C/c2ccc(Cl)c(Cl)c2)C(=O)N1c1ccccc1F` was tested. Which AC50 did it give?
Answer: 8.25 µM

Question: How did the AC50 turn out when `COc1cccc(/C=N/Nc2nc3ccccc3[nH]2)c1O` was run?
Answer: 8.89 µM

Question: With `C=C1C(O)[C@@H]2O[C@]3(CC[C@H](/C=C/C(C)[C@@H]4CC(C)=CC5(O[C@H](C[C@@](C)(O)C(=O)O)CCC5O)O4)O3)CC[C@H]2O[C@@H]1C(O)CC(C)[C@H]1OC2(CCCCO2)CCC1C` (stereo partly drawn) as the molecule, how does the AC50 read?
Answer: < 0.195 µM

Question: Which AC50 does the source give for `CC(C)CNC(=O)COC(=O)c1c2c(nc3ccccc13)/C(=C/c1cccs1)CC2` here?
Answer: 1.5 µM

Question: `CC(C)COCc1ccc(O)c2ncccc12` was tested. Which AC50 did it give?
Answer: 8.01 µM

Question: Which AC50 does the source give for `C=C1C(O)[C@@H]2O[C@]3(CC[C@H](/C=C/C(C)[C@@H]4CC(C)=CC5(O[C@H](C[C@@](C)(O)CO)CCC5O)O4)O3)CC[C@H]2O[C@@H]1C(O)CC(C)[C@H]1OC2(CCCCO2)CCC1C` (stereo partly drawn) here?
Answer: 10.7 µM

Question: How did the AC50 turn out when `Cc1cc(C(C)(C)C)cc(C)c1C[n+]1ccc2ccccc2c1` was run?
Answer: 1.74 µM

Question: For `C/C(=N/Nc1nc(-c2ccccc2)cc(-c2ccc(F)cc2)n1)c1cccc(N)c1`, which AC50 is on record?
Answer: 15.1 µM

Question: For `CC[N+](C)(CC)CCC(c1ccccc1)C1CCCCC1` (stereo not drawn), which AC50 is on record?
Answer: > 26 µM (inactive)

Question: `O=[N+]([O-])c1ccc(-c2nc(C(Cl)Cl)c3ccccc3n2)cc1` was tested. Which AC50 did it give?
Answer: 1.66 µM

Question: With `CC(=O)c1c(C)[nH]c(C(=O)OCCCCN2C(=O)c3ccccc3C2=O)c1C` as the molecule, how does the AC50 read?
Answer: 6.54 µM

Question: For `O=C(NN=C(c1ccccc1)c1ccccn1)c1ccccc1`, which AC50 is on record?
Answer: 2.55 µM

Question: How did the AC50 turn out when `N=c1ccn(CC(=O)c2ccc(-c3ccccc3)cc2)cc1` was run?
Answer: 1.94 µM

From PubChem BioAssay AID463229 (Broad Institute, 2010)
